Assay results as given in US20100184786A1, “Polar Quinazolines” (Wyeth LLC, priority 2008, published 2010).

Key:
Brain penetration data = format: in vivo; settings: brain/blood, read-out: Brain/Blood ratio
human LXRβ = molecular target: T1, human LXRβ (Homo sapiens, UniProt P55055); assay: Ligand-binding test procedure for human LXRβ (3H T0901317 tracer, flash plates); settings: competition with 3H T0901317; read-out: hLXRb binding IC50
T1 construct: biotin (biotinylated); made in house; host or cells: E. coli
T1 sequence (P55055 1-460): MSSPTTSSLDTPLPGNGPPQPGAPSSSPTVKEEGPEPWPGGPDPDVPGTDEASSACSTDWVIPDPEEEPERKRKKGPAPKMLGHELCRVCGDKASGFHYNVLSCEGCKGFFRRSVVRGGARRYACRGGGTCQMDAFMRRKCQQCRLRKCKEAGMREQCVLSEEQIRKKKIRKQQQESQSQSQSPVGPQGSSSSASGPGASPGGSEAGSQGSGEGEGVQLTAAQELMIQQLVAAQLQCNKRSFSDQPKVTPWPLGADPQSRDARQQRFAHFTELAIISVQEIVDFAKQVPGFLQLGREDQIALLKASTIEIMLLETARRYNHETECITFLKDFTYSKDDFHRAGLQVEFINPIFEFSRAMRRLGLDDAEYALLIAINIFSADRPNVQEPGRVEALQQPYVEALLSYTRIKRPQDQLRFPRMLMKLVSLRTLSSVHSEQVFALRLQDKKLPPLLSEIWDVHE
Method: I. Ligand-Binding Test Procedure for Human LXRβ.
• Buffer: 100 mM KCl, 100 mM TRIS (pH 7.4 at +4° C.), 8.6% glycerol, 0.1 mM PMSF*, 2 mM MTG*, 0.2% CHAPS (* not used in wash buffer) • Tracer: ^3H T0901317 • Receptor source: E. coli extracted from cells expressing biotinylated hLXRβ. Extract was made in a similar buffer as above, but with 50 mM TRIS.
• Washed streptavidin and coated flash plates with wash buffer. • Diluted receptor extract to give Bmax˜4000 cpm and add to the wells. • Wrapped the plates in aluminum foil and stored them at +4° C. overnight.
(§1) • Made a dilution series in DMSO of the test ligands. • Made a 5 nM solution of the radioactive tracer in buffer. • Mixed 2500 diluted tracer with 50 of the test ligand from each concentration of the dilution series. • Washed the receptor-coated flash plates. • Added 2000 per well of the ligand/radiolabel mixture to the receptor-coated flash plates. • Wrapped the plates in aluminum foil and incubate at +4° C. over night.
• Aspirated wells, and washed the flashed plates. Sealed the plate. • Measured the remaining radioactivity in the plate.

ABCA1 gene = assay: Gene regulation by LXR (murine): ABCA1 gene regulation, mRNA by real-time PCR; format: cell-based; settings: Mus musculus; for Emax: read-out: Agonism ABCA1
human LXRα = molecular target: T2, human LXRα (Homo sapiens, UniProt Q13133); assay: Ligand-binding test procedure for human LXRα (3H T0901317 tracer, flash plates); settings: competition with 3H T0901317; read-out: hLXRa binding IC50
T2 construct: biotin (biotinylated); made in house; host or cells: E. coli
T2 sequence (Q13133 1-447): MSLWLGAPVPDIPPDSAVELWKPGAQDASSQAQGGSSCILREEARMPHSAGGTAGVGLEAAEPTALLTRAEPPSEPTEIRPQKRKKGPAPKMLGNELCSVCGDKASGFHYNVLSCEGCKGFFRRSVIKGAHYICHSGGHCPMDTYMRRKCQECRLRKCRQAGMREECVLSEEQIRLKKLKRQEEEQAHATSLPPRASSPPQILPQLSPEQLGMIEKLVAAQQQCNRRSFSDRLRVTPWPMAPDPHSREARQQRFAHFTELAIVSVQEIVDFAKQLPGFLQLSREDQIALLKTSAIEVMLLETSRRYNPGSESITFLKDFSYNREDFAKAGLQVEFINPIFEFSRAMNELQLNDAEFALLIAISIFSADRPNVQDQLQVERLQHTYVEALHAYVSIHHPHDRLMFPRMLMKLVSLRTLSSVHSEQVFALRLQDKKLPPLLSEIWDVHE
Method: II. Ligand-Binding Test Procedure for Human LXRa.
• Buffer: 100 mM KCl, 100 mM TRIS (pH 7.4 at +4° C.), 8.6% glycerol, 0.1 mM PMSF*, 2 mM MTG*, 0.2% CHAPS (* not used in wash buffer) • Tracer: ^3H T0901317 • Receptor source: E. coli extract from cells expressing biotinylated hLXRα. Extract was made in a similar buffer as above, but with 50 mM TRIS.
• Washed streptavidin and coated flash plates with wash buffer. • Diluted receptor extract to give Bmax˜4000 cpm and add to the wells. • Wrapped the plates in aluminum foil and stored them at +4° C. over night.
as §1
• Aspirated wells, and wash the flashed plates. Sealed the plate. • Measured the remaining radioactivity in the plate.

| SMILES | Kp (Brain penetration data) | IC50 (human LXRβ) [nM] | EC50 (ABCA1 gene) [nM] | Emax (ABCA1 gene) [%] | IC50 (human LXRα) [nM] |
| --- | --- | --- | --- | --- | --- |
| CS(=O)(=O)c1cccc(Oc2ccc(F)c(-c3ncnc4c(C(F)(F)F)cccc34)c2)c1 | 1.45 |  |  |  |  |
| NC(=O)CCCS(=O)(=O)c1cccc(Oc2ccc(Cl)c(-c3ncnc4c(Cl)cccc34)c2)c1 [Example 8, 4-({3-[4-chloro-3-(8-chloroquinazolin-4-yl)phenoxy]phenyl}sulfonyl)butanamide] |  | 126 | 2170 | 74 | 1310 |
| CS(=O)(=O)c1cccc(Oc2ccc(F)c(-c3ncnc4c(Cl)cccc34)c2)c1 | 1.2 |  |  |  |  |
| N#CCS(=O)(=O)c1cccc(Oc2ccc(Cl)c(-c3ncnc4c(C(F)(F)F)cccc34)c2)c1 [Example 11, [(3-{4-chloro-3-[8-(trifluoromethyl)quinazolin-4-yl]phenoxy}phenyl)sulfonyl]-acetonitrile] | 0.16 | 40 | 1760 | 95 | 425 |
| CCS(=O)(=O)c1cccc(Oc2ccc(F)c(-c3ncnc4c(Cl)cccc34)c2)c1 | 1.2 |  |  |  |  |
| N#CCCCS(=O)(=O)c1cccc(Oc2ccc(Cl)c(-c3ncnc4c(C(F)(F)F)cccc34)c2)c1 [Example 3, 4-[(3-{4-chloro-3-[8-(trifluoromethyl)quinazolin-4-yl]phenoxy}phenyl)sulfonyl]-butanenitrile] |  | 35 | 2700 | 71 | 512 |
| CS(=O)(=O)CCCS(=O)(=O)c1cccc(Oc2ccc(F)c(-c3ncnc4c(C(F)(F)F)cccc34)c2)c1 [Example 32, 4-[2-fluoro-5-(3-{[3-(methylsulfonyl)propyl]sulfonyl}phenoxy)phenyl]-8-(trifluoromethyl)-quinazoline] |  | 59 | 1010 | 78 | 660 |
| Cc1nc(-c2cccc(-c3cccc(S(C)(=O)=O)c3)c2)c2cccc(C(F)(F)F)c2n1 | 2.27 |  |  |  |  |
| NS(=O)(=O)c1cccc(Oc2ccc(Cl)c(-c3ncnc4c(Cl)cccc34)c2)c1 [Example 17, 3-[4-chloro-3-(8-chloroquinazolin-4-yl)phenoxy]benzenesulfonamide] |  | 151 | 1480 | 74 | 1710 |
| CCS(=O)(=O)c1cccc(Oc2ccc(Cl)c(-c3nc(C)nc4c(C(F)(F)F)cccc34)c2)c1 | 1.57 |  |  |  |  |
| NC(=O)CS(=O)(=O)c1cccc(Oc2ccc(Cl)c(-c3ncnc4c(C(F)(F)F)cccc34)c2)c1 [Example 14, 2-[(3-{4-chloro-3-[8-(trifluoromethyl)quinazoliyl]phenoxy}phenyl)sulfonyl]-acetamide] |  | 56 | 1380 | 95 | 705 |
| N#CCCCCS(=O)(=O)c1cccc(Oc2ccc(F)c(-c3ncnc4c(Cl)cccc34)c2)c1 [Example 52, 5-({3-[3-(8-chloroquinazolin-4-yl)-4-fluorophenoxy]phenyl}sulfonyl)pentanenitrile] |  | 107 | 1800 | 74 | 2030 |
| NCCCS(=O)(=O)c1cccc(Oc2ccc(F)c(-c3ncnc4c(C(F)(F)F)cccc34)c2)c1 [Example 28, 3-[(3-{4-fluoro-3-[8-(trifluoromethyl)quinazolin-4-yl]phenoxy}phenyl)sulfonyl]propan-1-amine] |  | 116 |  | 3 | 2990 |
| N#CCCCS(=O)(=O)c1cccc(Oc2ccc(Cl)c(-c3ncnc4c(Cl)cccc34)c2)c1 [Example 4, 4-({3-[4-chloro-3-(8-chloroquinazolin-4-yl)phenoxy]phenyl}sulfonyl)butanenitrile] |  | 105 | 4340 | 48 | 1810 |
| CNS(=O)(=O)c1cccc(Oc2ccc(F)c(-c3ncnc4c(C(F)(F)F)cccc34)c2)c1 [Example 22] |  | 10 | 290 | 81 | 149 |
| N#CCCCS(=O)(=O)c1cccc(Oc2ccc(F)c(-c3ncnc4c(C(F)(F)F)cccc34)c2)c1 [Example 25, 4-[(3-{4-fluoro-3-[8-(trifluoromethyl)quinazolin-4-yl]phenoxy}phenyl)sulfonyl]butanenitrile] | 0.55 | 112 | 2470 | 68 | 1520 |
| Cc1nc(-c2cc(Oc3cccc(S(=O)(=O)CCCCC#N)c3)ccc2Cl)c2cccc(C(F)(F)F)c2n1 [Example 61, 5-[(3-{4-chloro-3-[2-methyl-8-(trifluoromethyl)quinazolin-4-yl]phenoxy}phenyl)sulfonyl]-pentanenitrile] |  | 97 |  | 27 | 2800 |
| NC(=O)CCCS(=O)(=O)c1cccc(Oc2ccc(Cl)c(-c3ncnc4c(C(F)(F)F)cccc34)c2)c1 [Example 9, 4-[(3-{4-chloro-3-[8-(trifluoromethyl)quinazolin-4-yl]phenoxy}phenyl)sulfonyl]-butanamide] | 0.06 | 41 | 1900 | 91 | 407 |
| CS(=O)(=O)CCCCS(=O)(=O)c1cccc(Oc2ccc(F)c(-c3ncnc4c(C(F)(F)F)cccc34)c2)c1 [Example 37, 4-[2-fluoro-5-(3-{[4-(methylsulfonyl)butyl]sulfonyl}phenoxy)phenyl]-8-(trifluoromethyl)-quinazoline] |  | 66 | 415 | 77 | 536 |
| O=C(O)CS(=O)(=O)c1cccc(Oc2ccc(Cl)c(-c3ncnc4c(C(F)(F)F)cccc34)c2)c1 [Example 15, [(3-{4-chloro-3-[8-(trifluoromethyl)quinazolin-4-yl]phenoxy}phenyl)sulfonyl]acetic acid] |  | 19 | 2920 | 51 | 1010 |
| CNS(=O)(=O)c1cccc(Oc2ccc(Cl)c(-c3ncnc4c(C(F)(F)F)cccc34)c2)c1 [Example 18] |  | 4 | 85 | 94 | 81 |
| CNS(=O)(=O)c1cccc(Oc2ccc(Cl)c(-c3ncnc4c(Cl)cccc34)c2)c1 [Example 16, 3-[4-chloro-3-(8-chloroquinazolin-4-yl)phenoxy]-N-methylbenzenesulfonamide] |  | 11 | 255 | 98 | 146 |
